Results as given in patent US8329726B2, “Inhibitors of VEGF receptor and HGF receptor signaling” (MethylGene Inc., priority 2005, dated 2012).

Assays:
[1] = test system: A549; test: In vivo solid tumor disease model, A549; set-up: species or system female athymic CD1 mice; conditions: 14 days
[2] = test system: MV4-11; test: In vivo solid tumor disease model, MV4-11; set-up: species or system female athymic CD1 mice; conditions: MV4-11, 20 mg/kg p.o. once daily, 14 days
[3] = test system: Colo265; test: In vivo solid tumor disease model, Colo265; set-up: species or system female athymic CD1 mice; conditions: Colo265, 30 mg/kg i.p. once daily, 14 days
[4] = target: T1, recombinant human c-Met/HGF receptor (Homo sapiens, UniProt P08581); test: In vitro receptor tyrosine kinase assay (DELFIA), c-Met/HGF receptor; assay type: biochemical; conditions: recombinant c-Met IC, 10 uM ATP, DELFIA; read-out: C-Met (IC50)
T1 construct: His tag (pBlueBacHis2A vector); made in house; host or cells: Hi-5 cells (Trichoplusia ni), baculovirus
Description: Cell pellets were frozen at −80° C. until purification was performed.
The coated plates were washed and stored at 4° C. […] After incubation, the kinase reactions were quenched with EDTA and the plates were washed.

[5] = target: T2, TPR-MET fusion protein (Homo sapiens, UniProt P08581); test: C-Met phosphorylation cell-based assay (MNNGHOS cells); conditions: MNNGHOS cells, 3 hours treatment, immunoblot; read-out: Y1230-34-35 TPR-MET phosphorylation (IC50)
T2 construct: the MET gene on chromosome 7 encoding for its cytoplasmic region catalytic domain; host or cells: MNNGHOS cells; the other entry of the earlier key: TPR (P12270, Nucleoprotein TPR)
Description: C-Met Phosphorylation Cell-Based Assay
Signal was quantitated by densitometry on Alpha-Imager.

[6] = target: T3, VEGF receptor KDR (Homo sapiens, UniProt P35968); test: In vitro receptor tyrosine kinase assay (DELFIA), VEGF receptor KDR; assay type: biochemical; conditions: GST-VEGFR2 806-1356, 0.6 uM ATP, DELFIA; read-out: VEGFR (IC50)
T3 construct: made in house; host or cells: Sf9 cells (Spodoptera frugiperda), baculovirus

[7] = test system: U87MG; test: In vivo solid tumor disease model, U87MG; set-up: species or system female athymic CD1 mice; conditions: 75 mg/kg p.o. once daily, 14 days
Description: In Vivo Solid Tumor Disease Model
This test measures the capacity of compounds to inhibit solid tumor growth.
Tumor xenografts are established in the flank of female athymic CD1 mice (Charles River Inc.), by subcutaneous injection of 1×10^6 U87, A431 or SKLMS cells/mouse. Once established, tumors are then serially passaged s.c. in nude mice hosts. Tumor fragments from these host animals are used in subsequent compound evaluation experiments. For compound evaluation experiments female nude mice weighing approximately 20 g are implanted s.c. by surgical implantation with tumor fragments of ˜30 mg from donor tumors. When the tumors are approximately 100 mm^3 in size (˜7-10 days following implantation), the animals are randomized and separated into treatment and control groups. Each group contains 6-8 tumor-bearing mice, each of which is ear-tagged and followed individually throughout the experiment.
Mice are weighed and tumor measurements are taken by calipers three times weekly, starting on Day 1. These tumor measurements are converted to tumor volume by the well-known formula […]. The experiment is terminated when the control tumors reach a size of approximately 1500 mm^3. […] In addition to tumor volumes, body weight of animals is monitored twice weekly for up to 3 weeks. […]

T1 sequence (P08581 1078-1337): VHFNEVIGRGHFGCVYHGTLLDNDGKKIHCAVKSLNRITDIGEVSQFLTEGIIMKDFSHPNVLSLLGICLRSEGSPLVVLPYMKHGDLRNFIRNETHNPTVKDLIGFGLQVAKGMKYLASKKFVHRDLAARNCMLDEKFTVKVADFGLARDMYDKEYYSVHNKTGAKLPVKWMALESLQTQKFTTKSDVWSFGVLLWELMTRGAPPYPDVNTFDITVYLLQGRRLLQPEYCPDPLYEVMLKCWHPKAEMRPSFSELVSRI
T3 sequence (P35968 806-1356): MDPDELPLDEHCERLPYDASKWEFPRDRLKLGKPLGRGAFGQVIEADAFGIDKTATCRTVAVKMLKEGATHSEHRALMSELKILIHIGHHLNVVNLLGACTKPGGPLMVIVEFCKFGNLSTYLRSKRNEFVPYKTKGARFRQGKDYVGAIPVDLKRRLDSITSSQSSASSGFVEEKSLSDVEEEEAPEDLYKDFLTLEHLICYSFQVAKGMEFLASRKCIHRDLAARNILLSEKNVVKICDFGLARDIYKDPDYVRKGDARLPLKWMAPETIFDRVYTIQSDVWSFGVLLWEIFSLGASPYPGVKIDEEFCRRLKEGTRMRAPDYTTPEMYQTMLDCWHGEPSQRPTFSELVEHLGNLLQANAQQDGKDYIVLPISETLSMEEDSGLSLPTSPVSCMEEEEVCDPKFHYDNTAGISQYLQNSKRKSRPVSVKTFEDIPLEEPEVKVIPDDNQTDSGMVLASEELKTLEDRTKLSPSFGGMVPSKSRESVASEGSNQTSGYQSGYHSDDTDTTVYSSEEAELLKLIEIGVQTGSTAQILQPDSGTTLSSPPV
T2 sequence (P08581 with tags, fused parts or gaps): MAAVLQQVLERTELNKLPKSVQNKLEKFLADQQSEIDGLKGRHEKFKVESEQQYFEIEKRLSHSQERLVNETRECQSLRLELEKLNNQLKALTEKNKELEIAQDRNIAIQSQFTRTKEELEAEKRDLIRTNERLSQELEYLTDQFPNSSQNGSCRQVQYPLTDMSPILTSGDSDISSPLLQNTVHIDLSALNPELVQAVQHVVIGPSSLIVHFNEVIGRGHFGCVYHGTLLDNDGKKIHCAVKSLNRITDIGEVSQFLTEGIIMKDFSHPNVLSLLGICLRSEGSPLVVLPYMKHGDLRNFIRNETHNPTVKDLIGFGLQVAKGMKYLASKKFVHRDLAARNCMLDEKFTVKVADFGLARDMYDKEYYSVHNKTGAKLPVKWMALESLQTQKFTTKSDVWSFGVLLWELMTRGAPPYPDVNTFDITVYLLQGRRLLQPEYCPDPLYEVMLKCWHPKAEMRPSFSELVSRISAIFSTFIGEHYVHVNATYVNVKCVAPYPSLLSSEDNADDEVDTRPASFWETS

`CN(C)Cc1cccc(-c2cc3nccc(Oc4ccc(NC(=O)CC(=O)Nc5ccccc5F)cc4F)c3s2)c1` [drawing 462] was tested, and the “Tumor Growth Inhibition (%)” value ([1]; A549, 20 mg/kg p.o. once daily) was “b (% TGI in the range of 50-74)”.
For `CN1CCN(CCN(C)Cc2ccc(-c3cc4nccc(Oc5ccc(NC(=O)CC(=O)Nc6ccccc6)cc5F)c4s3)cc2)CC1` [drawing 464], the “Tumor Growth Inhibition (%)” value [2] was “b (% TGI in the range of 50-74)”.
For `CN(C(=O)CC(=O)Nc1ccc(Oc2ccnc3cc(-c4cn(CCN5CCCC5)cn4)sc23)c(F)c1)c1ccccc1`, the “Tumor Growth Inhibition (%)” value [3] was “b (% TGI in the range of 50-74)”.
For `CCn1cnc(-c2cc3nccc(Oc4ccc(NC(=O)C5(C(=O)Nc6ccccc6)CC5)cc4F)c3s2)c1` [drawing 463], the “Tumor Growth Inhibition (%)” value ([1]; A549, 40 mg/kg p.o. once daily) was “b (% TGI in the range of 50-74)”.
`Cn1ccnc1-c1cc2nccc(Oc3ccc(NC(=O)CC(=O)Nc4cccnc4)cc3F)c2s1` [Compound 40, N^1-(3-Fluoro-4-(2-(1-methyl-1H-imidazol-2-yl)thieno[3,2-b]pyridin-7-yloxy)phenyl)-N^3-(pyridine-3-yl)malonamide] was tested, and the IC50 [4] was 268 nM, the IC50 [5] was roughly 500 nM and the IC50 [6] was 13 nM.
In the case of `CCn1cnc(-c2cc3nccc(Oc4ccc(NC(=O)CC(=O)Nc5ccccc5)cc4F)c3s2)c1` [drawing 460], the “Tumor Growth Inhibition (%)” value [7] is reported as “b (% TGI in the range of 50-74)”.
In the case of `CCn1cnc(-c2cc3nccc(Oc4ccc(NC(=O)CC(=O)Nc5ccccc5F)cc4F)c3s2)c1` [drawing 461], the “Tumor Growth Inhibition (%)” value [7] is reported as “b (% TGI in the range of 50-74)”.
